Results as given in US10624883B2, “Pulmonary hypertension preventative or therapeutic agent containing component exhibiting selenoprotein P activity-inhibiting effect” (priority 2016, dated 2020).
“Also recorded” adds a separate entry of the source.

Legend:
[1] = tested on: hypoxia-induced pulmonary hypertension mouse model; assay: Hypoxia-induced pulmonary hypertension mouse model (RVSP, right ventricular hypertrophy); format: in vivo; settings: 10% O2 hypoxia, day 28
Description: Eight-week-old male C57BL6/J mice (n=8 per group) were administered sanguinarine (5 mg/kg/day, daily for 28 days, oral administration). A product available from SSX (Cat. No. 1845, Sanguinarine Chloride 10 mg) was used as sanguinarine. A preparation method for a test solution for a treatment group was as follows: sanguinarine was first dissolved at 100 μg/μl in 100% DMSO and the solution was further dissolved in phosphate buffered saline (PBS) so that the final concentration of sanguinarine was 1 μg/μl. A test solution for a control group was prepared by dissolving DMSO at the same concentration in PBS (1% DMSO).
From the test starting day, the mice were bred under a 10% O2 hypoxic environment to generate a hypoxia-induced pulmonary hypertension mouse model. From the same day, the test solutions for the control group and the treatment group were directly administered into the stomachs of the mice once daily through the use of a probe for mice. Regarding doses, the mice were measured for their body weights daily during a test period, and doses were calculated separately for the mice so as to achieve 5 mg/kg/day.
An administration period (=hypoxic breeding period) was 28 days.
After daily administration for 28 days, pulmonary hemodynamics and right ventricular hypertrophy were assessed at the end point (on day 28 after the start of hypoxic stimulation). The assessment of pulmonary hemodynamics was performed by directly measuring right ventricular systolic pressure (RVSP) with a pressure measurement catheter (Transonic Scisense) inserted into the right jugular vein. In addition, the assessment of right ventricular hypertrophy was performed by measuring right ventricular free wall (RV) weight in a dissected heart tissue to calculate its ratio to left ventricle plus septum (LV+Septum) weight (RV/(LV+Septum)). RV/(LV+Septum) serves as an indicator of right ventricular hypertrophy. A larger numerical value for RV/(LV+Septum) indicates a higher degree of right ventricular hypertrophy. In addition, in order to assess pulmonary vascular remodeling, staining for α-smooth muscle actin (α-SMA) in a lung tissue section was performed on day 28. Pulmonary vascular remodeling was assessed by performing immunostaining for α-smooth muscle actin (α-SMA) in a lung tissue section and quantitatively assessing the extent of muscularization (classified into three stages, i.e., non-muscularization, partial muscularization, and full muscularization) of α-SMA-positive distal pulmonary arteries. Specifically, in each section, about 100 pulmonary arteries having diameters of from 20 μm to 70 μm were each assessed for a double elastic lamina. In this assessment, a pulmonary artery in which a double elastic lamina including an internal elastic lamina and an external elastic lamina was visible for less than 50% of the entire periphery of the pulmonary artery was considered non-muscularized, a pulmonary artery in which the double elastic lamina was visible for 50% or more and less than 100% of the entire periphery of the pulmonary artery was considered partially muscularized, and a pulmonary artery in which the double elastic lamina was visible throughout the entire periphery of the pulmonary artery was considered fully muscularized.
Eight-week-old male C57BL6/J mice (n=8 per group) were administered cinobufotalin (5 mg/kg/day, daily for 28 days, intraperitoneal administration). A product available from Sigma (Cat. No. C1147-10MG, Cinobufotalin 10 mg) was used as cinobufotalin. A preparation method for a test solution for a treatment group was as follows: cinobufotalin was first dissolved at 30 μg/μl in 100% DMSO and the solution was further dissolved in PBS so that the final concentration of cinobufotalin was 0.3 μg/μl. A test solution for a control group was prepared by dissolving DMSO at the same concentration in PBS (1% DMSO). […]

selenoprotein P protein = assay: Western blotting of selenoprotein P protein in lungs of hypoxia-induced pulmonary hypertension mice; format: in vivo, mouse; settings: C57BL/6 mice, 5 mg/kg/day oral, daily for 28 days, 10% hypoxia
Description: In addition, regarding sanguinarine, C57BL/6 mice (n=8 per group) were administered sanguinarine (5 mg/kg/day, daily for 28 days, oral administration). At the same time, the mice were bred under a 10% hypoxic environment. Thus, a hypoxia-induced pulmonary hypertension mouse model was generated and investigated.

Sugen/hypoxia rat model = assay: Sugen/hypoxia-induced pulmonary hypertension rat model (RVSP, RVH); format: in vivo; settings: 5 mg/kg oral for 28 days, started day 21 after hypoxia+SU5416
Description: In this test, littermates or vehicle treatment groups were used as controls. A Sugen/hypoxia-induced hypertension rat model was used to assess pulmonary hypertension (PH) (Non-patent Literature 4). In order to assess the development of pulmonary hypertension, right ventricular systolic pressure (RVSP) and right ventricular hypertrophy (RVH) were measured (Non-patent Literatures 4 to 6).
For right heart catheterization, a 1.4-F (for rats) pressure measurement catheter (Transonic Scisense) was inserted into the right jugular vein and advanced into the right ventricle to measure RVSP (Non-patent Literature 7).
In the Sugen/hypoxia model, rats (Sprague-Dawley, male, 7- to 10-week-old) were injected subcutaneously with a VEGF-receptor inhibitor SU5416 (Sigma-Aldrich, St Louis, Mo.) (20 mg per kg body weight) under isoflurane anesthesia and were then exposed to hypoxia (10% O2) for 3 weeks. […] All data were analyzed using the PowerLab data acquisition system (AD Instruments, Bella Vista, Australia) and were averaged over 50 sequential beats (Non-patent Literatures 4 to 6).
Formaldehyde-fixed dry hearts were dissected and the right ventricular free wall (RV) was removed from the left ventricle (LV) and septum. The ratio of right ventricular free wall (RV) weight to left ventricle plus septum (LV+Septum) weight [RV/(LV+S)] was measured to assess the extent of RVH (Non-patent Literature 4). […]

SeP = SeP protein levels in lungs of Sugen/hypoxia rats; format: in vivo, rat; settings: 5 mg/kg oral for 28 days, hypoxia+SU5416 rats
Description: (§1) Rats (Sprague-Dawley, male, 7- to 10-week-old) were injected subcutaneously with a VEGF-receptor inhibitor SU5416 (Sigma-Aldrich) (20 mg per kg body weight) under isoflurane anesthesia and were then exposed to hypoxia (10% O2) for 3 weeks (hypoxia+SU5416). On day 21, the rats were randomized to be orally administered sanguinarine (5 mg per kg body weight) or vehicle under normoxia (21% O2) for 4 weeks. The vehicle administration group is expressed as vehicle controls. In addition, rats injected with saline on day 1 and exposed to normoxia for 7 weeks were used as (normoxic) controls. […] On day 49, the rats were anesthetized with isoflurane (1.0%) to measure RVSP, RVH, and pulmonary vascular remodeling. Thus, the development of PH was assessed.
FIG. 10(D) includes an image and graph for showing quantification of SeP protein levels in normoxic control rats or hypoxia+SU5416 rats with or without sanguinarine treatment. Data represent the mean±SEM. *p<0.05. Comparisons of parameters were performed with one-way or two-way ANOVA and Tukey's HSD test for multiple comparisons.

[2] = Body weight and food consumption in Sugen/hypoxia rats; format: in vivo, rat; settings: 5 mg/kg oral for 28 days
Description: as §1
FIG. 10(B) is a graph for showing the time-course of body weight from the starting point of administration of sanguinarine or vehicle for 4 weeks in Sugen/hypoxia rats (n=12). Data represent the mean±SEM.

[3] = 1 mg/kg/day intraperitoneal, alternate days for 28 days
[4] = 5 mg/kg/day oral, daily for 28 days
[5] = 5 mg/kg/day intraperitoneal, daily for 28 days

## COC(=O)[C@]1(C)CC[C@]2(C)CC[C@]3(C)C4=CC=C5C(=CC(=O)C(O)=C5C)[C@]4(C)CC[C@@]3(C)[C@@H]2C1 [pristimerin, methyl (2R,4aS,6aS,12bR,14aS,14bR)-10-hydroxy-2,4a,6a,9,12b,14a-hexamethyl-11-oxo-1,2,3,4,4a,5,6,6a,11,12b,13,14,14a,14b-tetradecahydropicene-2-carboxylate]
[1]; [3]
  right ventricular hypertrophy (RV/(LV+Septum)) vs control group: significantly reduced
  right ventricular systolic pressure vs control group: significantly reduced

## C[n+]1cc2c3c(ccc2c2ccc4cc5c(cc4c21)OCO5)OCO3 [sanguinarine]
Selenoprotein P protein
  selenoprotein P protein expression in the lungs vs control: significantly suppressed
[1]; [4]
  right ventricular hypertrophy (RV/(LV+Septum)) vs control group: significantly reduced
  right ventricular systolic pressure vs control group: significantly reduced
Sugen/hypoxia rat model
  RVH [RV/(LV+S)] vs vehicle controls: reduced
  RVSP vs vehicle controls: reduced
SeP
  SeP expression in the lungs: significantly reduced
[2]
  influence on body weight vs vehicle control: no significant differences; also recorded: no influence
  influence on food consumption vs vehicle control: no significant differences; also recorded: no influence

## CC(=O)OC1C(c2ccc(=O)oc2)C2(C)CCC3C(CCC4(O)CC(O)CCC34C)C23OC13 [cinobufotalin, [(1R,2R,2aR,3aS,5aS,7S,9aR,11aR)-5a,7-dihydroxy-9a,11a-dimethyl-1-(2-oxo-2H-pyran-5-yl)hexadecahydronaphtho[1′,2′:6,7]indeno[1,7a-b]oxiren-2-yl acetate]]
[1]; [5]
  right ventricular hypertrophy (RV/(LV+Septum)) vs control group: significantly reduced
  right ventricular systolic pressure vs control group: significantly reduced
